Laboratory results reported in patent US10336792B2, “Antimicrobial peptide dendrimers” (priority 2014, dated 2019).
≈ marks a conversion by molar mass, not a printed value. Positions of bridges follow the written chain, without caps; N, C: chain ends. Non-standard residues stand in square brackets, D forms with d. Residues, ends and D or L forms follow the SMILES beside them. Groups on a side chain read outwards from the residue. Chains are numbered I, II in the order given. *: point of attachment. Stearoyl = CCCCCCCCCCCCCCCCCC(=O)*; X1 = CCCCCCCCCCCCCCCCCCCCCCCC(=O)*; dDap = NC[C@@H](N)C(=O)O; Dab = NCC[C@H](N)C(=O)O

Legend:
Type in all cases: cell-based
[1] = system: Pseudomonas aeruginosa (strain PA01); test: microbe, parasite or virus in culture; conditions: strain
In short: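 P. aeruginosa PAO1 grown overnight in LB, diluted to OD600 0.001 and mixed with ⅔-step peptide dilutions, then incubated at 37 °C for 18–24 h. After MTT staining, the lowest concentration with no visible growth was read by eye as the MIC.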

[2] = system: Escherichia coli (strain DH5α); conditions: DH5α
In short: (§1)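 Broth microdilution MIC in LB; overnight cultures diluted to OD600 0.001 and mixed 1:1 with ⅔-serially diluted samples (stock 1 mg mL^−1 in H2O), 37° C for 18-24 h. MTT (0.1%) added; MIC read by eye as lowest concentration inhibiting visible growth (yellow).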

[3] = system: Bacillus subtilis (strain BR151); conditions: strain BR151
In short: as §1

CC(C)C[C@H](NC(=O)[C@@H](N)CCN)C(=O)NCCCC[C@H](NC(=O)[C@H](CC(C)C)NC(=O)[C@@H](N)CCN)C(=O)N[C@@H](CCN)C(=O)N[C@@H](Cc1c[nH]c2ccccc12)C(=O)NCCCC[C@H](NC(=O)[C@H](Cc1c[nH]c2ccccc12)NC(=O)[C@H](CCN)NC(=O)[C@H](CCCCNC(=O)[C@H](CC(C)C)NC(=O)[C@@H](N)CCN)NC(=O)[C@H](CC(C)C)NC(=O)[C@@H](N)CCN)C(=O)N[C@@H](CCN)C(=O)N[C@@H](Cc1c[nH]c2ccccc12)C(=O)NCCCC[C@H](NC(=O)[C@H](Cc1c[nH]c2ccccc12)NC(=O)[C@H](CCN)NC(=O)[C@H](CCCCNC(=O)[C@H](Cc1c[nH]c2ccccc12)NC(=O)[C@H](CCN)NC(=O)[C@H](CCCCNC(=O)[C@H](CC(C)C)NC(=O)[C@@H](N)CCN)NC(=O)[C@H](CC(C)C)NC(=O)[C@@H](N)CCN)NC(=O)[C@H](Cc1c[nH]c2ccccc12)NC(=O)[C@H](CCN)NC(=O)[C@H](CCCCNC(=O)[C@H](CC(C)C)NC(=O)[C@@H](N)CCN)NC(=O)[C@H](CC(C)C)NC(=O)[C@@H](N)CCN)C(=O)N[C@@H](CCN)C(=O)N[C@@H](C)C(N)=O [MSt-205, (DabL)8(KDabW)4(KDabW)2(KDabA)] (I: H-[Dab]LK([Leu-Dab])[Dab]WK[Dab]WK[Dab]A-NH2 / II: H-[Dab]LK([Leu-Dab])[Dab]WK[Dab]W / III: H-[Dab]LK([Leu-Dab])[Dab]W / IV: H-[Dab]LK([Leu-Dab])[Dab]W; amide I:6-IV:C, I:9-II:C, II:6-III:C; N-terminus assumed) was tested, and the “MIC P. aeruginosa PAO1” value [1] was 3 µg/mL (≈ 0.665 µM), the “MIC E. coli DH5α” value [2] was 2 µg/mL (≈ 0.443 µM) and the “MIC B. subtilis BR151” value [3] was 2 µg/mL (≈ 0.443 µM).

In the case of CCCCCCCCCCCCCCCCCCCCCCCC(=O)NCCCC[C@H](NC(=O)[C@H](CC(C)C)NC(=O)[C@H](CCCCN)NC(=O)[C@H](CCCCNC(=O)[C@H](CC(C)C)NC(=O)[C@H](CCCCN)NC(=O)[C@H](CCCCNC(=O)[C@H](CC(C)C)NC(=O)[C@H](CCCCN)NC(=O)[C@H](CCCCNC(=O)[C@H](CC(C)C)NC(=O)[C@@H](N)CCCCN)NC(=O)[C@H](CC(C)C)NC(=O)[C@@H](N)CCCCN)NC(=O)[C@H](CC(C)C)NC(=O)[C@H](CCCCN)NC(=O)[C@H](CCCCNC(=O)[C@H](CC(C)C)NC(=O)[C@@H](N)CCCCN)NC(=O)[C@H](CC(C)C)NC(=O)[C@@H](N)CCCCN)NC(=O)[C@H](CC(C)C)NC(=O)[C@H](CCCCN)NC(=O)[C@H](CCCCNC(=O)[C@H](CC(C)C)NC(=O)[C@H](CCCCN)NC(=O)[C@H](CCCCNC(=O)[C@H](CC(C)C)NC(=O)[C@@H](N)CCCCN)NC(=O)[C@H](CC(C)C)NC(=O)[C@@H](N)CCCCN)NC(=O)[C@H](CC(C)C)NC(=O)[C@H](CCCCN)NC(=O)[C@H](CCCCNC(=O)[C@H](CC(C)C)NC(=O)[C@@H](N)CCCCN)NC(=O)[C@H](CC(C)C)NC(=O)[C@@H](N)CCCCN)C(N)=O [MSt-285, (KL)8(KKL)4(KKL)2(KKLKC24)] (I: H-KLK([Leu-Lys])KLKKLKKLK(X1)-NH2 / II: H-KLK([Leu-Lys])KLKKL / III: H-KLK([Leu-Lys])KL / IV: H-KLK([Leu-Lys])KL; amide I:6-IV:C, I:9-II:C, II:6-III:C), the “MIC P. aeruginosa PAO1” value [1] is reported as 12 µg/mL (≈ 2.39 µM), the “MIC E. coli DH5α” value [2] is reported as 5 µg/mL (≈ 0.997 µM) and the “MIC B. subtilis BR151” value [3] is reported as 16 µg/mL (≈ 3.19 µM).

For CC(C)C[C@@H](NC(=O)[C@@H](CCCNC(=N)N)NC(=O)[C@@H](CCCCNC(=O)[C@@H](CC(C)C)NC(=O)[C@@H](CCCNC(=N)N)NC(=O)[C@@H](CCCCNC(=O)[C@@H](CC(C)C)NC(=O)[C@@H](CCCNC(=N)N)NC(=O)[C@@H](CCCCNC(=O)[C@@H](CC(C)C)NC(=O)[C@H](N)CCCNC(=N)N)NC(=O)[C@@H](CC(C)C)NC(=O)[C@H](N)CCCNC(=N)N)NC(=O)[C@@H](CC(C)C)NC(=O)[C@@H](CCCNC(=N)N)NC(=O)[C@@H](CCCCNC(=O)[C@@H](CC(C)C)NC(=O)[C@H](N)CCCNC(=N)N)NC(=O)[C@@H](CC(C)C)NC(=O)[C@H](N)CCCNC(=N)N)NC(=O)[C@@H](CC(C)C)NC(=O)[C@@H](CCCNC(=N)N)NC(=O)[C@@H](CCCCNC(=O)[C@@H](CC(C)C)NC(=O)[C@@H](CCCNC(=N)N)NC(=O)[C@@H](CCCCNC(=O)[C@@H](CC(C)C)NC(=O)[C@H](N)CCCNC(=N)N)NC(=O)[C@@H](CC(C)C)NC(=O)[C@H](N)CCCNC(=N)N)NC(=O)[C@@H](CC(C)C)NC(=O)[C@@H](CCCNC(=N)N)NC(=O)[C@@H](CCCCNC(=O)[C@@H](CC(C)C)NC(=O)[C@H](N)CCCNC(=N)N)NC(=O)[C@@H](CC(C)C)NC(=O)[C@H](N)CCCNC(=N)N)C(N)=O [MSt-155, (rl)8(krl)4(krl)2(krl)] (I: H-[dR][dL][dK]([dL-dR])[dR][dL][dK][dR][dL][dK][dR][dL]-NH2 / II: H-[dR][dL][dK]([dL-dR])[dR][dL][dK][dR][dL] / III: H-[dR][dL][dK]([dL-dR])[dR][dL] / IV: H-[dR][dL][dK]([dL-dR])[dR][dL]; amide I:6-IV:C, I:9-II:C, II:6-III:C), the “MIC P. aeruginosa PAO1” value [1] was 11 µg/mL (≈ 2.22 µM), the “MIC E. coli DH5α” value [2] was 4 µg/mL (≈ 0.807 µM) and the “MIC B. subtilis BR151” value [3] was 6 µg/mL (≈ 1.21 µM).

For CCCCCCCCCCCCCCCCCC(=O)NCCCC[C@H](NC(=O)[C@H](CC(C)C)NC(=O)[C@H](CCCCN)NC(=O)[C@H](CCCCNC(=O)[C@H](CC(C)C)NC(=O)[C@H](CCCCN)NC(=O)[C@H](CCCCNC(=O)[C@H](CC(C)C)NC(=O)[C@@H](N)CCCCN)NC(=O)[C@H](CC(C)C)NC(=O)[C@@H](N)CCCCN)NC(=O)[C@H](CC(C)C)NC(=O)[C@H](CCCCN)NC(=O)[C@H](CCCCNC(=O)[C@H](CC(C)C)NC(=O)[C@@H](N)CCCCN)NC(=O)[C@H](CC(C)C)NC(=O)[C@@H](N)CCCCN)C(N)=O [MSt-286, (KL)4(KKL)2(KKLKC18)] (I: H-KLK([Leu-Lys])KLKKLK(Stearoyl)-NH2 / II: H-KLK([Leu-Lys])KL; amide I:6-II:C; N-terminus assumed), the “MIC P. aeruginosa PAO1” value [1] was 4 µg/mL (≈ 1.61 µM), the “MIC E. coli DH5α” value [2] was 3 µg/mL (≈ 1.21 µM) and the “MIC B. subtilis BR151” value [3] was 4 µg/mL (≈ 1.61 µM).

In the case of CC(C)C[C@@H](NC(=O)[C@@H](CCCNC(=N)N)NC(=O)[C@@H](CNC(=O)[C@@H](CC(C)C)NC(=O)[C@@H](CCCNC(=N)N)NC(=O)[C@@H](CNC(=O)[C@@H](CC(C)C)NC(=O)[C@@H](CCCNC(=N)N)NC(=O)[C@@H](CNC(=O)[C@@H](CC(C)C)NC(=O)[C@H](N)CCCNC(=N)N)NC(=O)[C@@H](CC(C)C)NC(=O)[C@H](N)CCCNC(=N)N)NC(=O)[C@@H](CC(C)C)NC(=O)[C@@H](CCCNC(=N)N)NC(=O)[C@@H](CNC(=O)[C@@H](CC(C)C)NC(=O)[C@H](N)CCCNC(=N)N)NC(=O)[C@@H](CC(C)C)NC(=O)[C@H](N)CCCNC(=N)N)NC(=O)[C@@H](CC(C)C)NC(=O)[C@@H](CCCNC(=N)N)NC(=O)[C@@H](CNC(=O)[C@@H](CC(C)C)NC(=O)[C@@H](CCCNC(=N)N)NC(=O)[C@@H](CNC(=O)[C@@H](CC(C)C)NC(=O)[C@H](N)CCCNC(=N)N)NC(=O)[C@@H](CC(C)C)NC(=O)[C@H](N)CCCNC(=N)N)NC(=O)[C@@H](CC(C)C)NC(=O)[C@@H](CCCNC(=N)N)NC(=O)[C@@H](CNC(=O)[C@@H](CC(C)C)NC(=O)[C@H](N)CCCNC(=N)N)NC(=O)[C@@H](CC(C)C)NC(=O)[C@H](N)CCCNC(=N)N)C(N)=O [MSt-156, (rl)8(brl)4(brl)2(brl)] (I: H-[dR][dL][dDap]([dL-dR])[dR][dL][dDap][dR][dL][dDap][dR][dL]-NH2 / II: H-[dR][dL][dDap]([dL-dR])[dR][dL][dDap][dR][dL] / III: H-[dR][dL][dDap]([dL-dR])[dR][dL] / IV: H-[dR][dL][dDap]([dL-dR])[dR][dL]; amide I:6-IV:C, I:9-II:C, II:6-III:C), the “MIC P. aeruginosa PAO1” value [1] is reported as 10 µg/mL (≈ 2.15 µM), the “MIC E. coli DH5α” value [2] is reported as 4 µg/mL (≈ 0.858 µM) and the “MIC B. subtilis BR151” value [3] is reported as 7 µg/mL (≈ 1.5 µM).

NCCCC[C@H](NC(=O)[C@H](CCCCNC(=O)[C@H](Cc1c[nH]c2ccccc12)NC(=O)[C@H](CCCCN)NC(=O)[C@H](CCCCNC(=O)[C@H](Cc1c[nH]c2ccccc12)NC(=O)[C@H](CCCCN)NC(=O)[C@H](CCCCNC(=O)[C@H](Cc1c[nH]c2ccccc12)NC(=O)[C@@H](N)CCCCN)NC(=O)[C@H](Cc1c[nH]c2ccccc12)NC(=O)[C@@H](N)CCCCN)NC(=O)[C@H](Cc1c[nH]c2ccccc12)NC(=O)[C@H](CCCCN)NC(=O)[C@H](CCCCNC(=O)[C@H](Cc1c[nH]c2ccccc12)NC(=O)[C@@H](N)CCCCN)NC(=O)[C@H](Cc1c[nH]c2ccccc12)NC(=O)[C@@H](N)CCCCN)NC(=O)[C@H](Cc1c[nH]c2ccccc12)NC(=O)[C@H](CCCCN)NC(=O)[C@H](CCCCNC(=O)[C@H](Cc1c[nH]c2ccccc12)NC(=O)[C@H](CCCCN)NC(=O)[C@H](CCCCNC(=O)[C@H](Cc1c[nH]c2ccccc12)NC(=O)[C@@H](N)CCCCN)NC(=O)[C@H](Cc1c[nH]c2ccccc12)NC(=O)[C@@H](N)CCCCN)NC(=O)[C@H](Cc1c[nH]c2ccccc12)NC(=O)[C@H](CCCCN)NC(=O)[C@H](CCCCNC(=O)[C@H](Cc1c[nH]c2ccccc12)NC(=O)[C@@H](N)CCCCN)NC(=O)[C@H](Cc1c[nH]c2ccccc12)NC(=O)[C@@H](N)CCCCN)C(=O)N[C@@H](Cc1c[nH]c2ccccc12)C(N)=O [MSt-172, (KW)8(KKW)4(KKW)2(KKW)] (I: H-KWK([Trp-Lys])KWKKWKKW-NH2 / II: H-KWK([Trp-Lys])KWKKW / III: H-KWK([Trp-Lys])KW / IV: H-KWK([Trp-Lys])KW; amide I:6-IV:C, I:9-II:C, II:6-III:C; N-terminus assumed) was tested, and the “MIC P. aeruginosa PAO1” value [1] was 12 µg/mL (≈ 2.13 µM), the “MIC E. coli DH5α” value [2] was 7 µg/mL (≈ 1.24 µM) and the “MIC B. subtilis BR151” value [3] was 6 µg/mL (≈ 1.07 µM).
